Where two headings read alike, the source gives them in different places.
Columns and labels:
Type in all cases: cell-based
[1] = test system: human sebocytes; assay: Sebocyte assay: 14C-acetate label remaining in sebocytes (sebum suppression in vitro); details: for inhibition at 0.001 %: 0.001% test agent; for inhibition at 0.01 %: 0.01% test agent; for sebum suppression, result in words: conclusion drawn from Tables 1-5
Protocol: Secondary cultures of human sebocytes obtained from an adult […] were grown in 48-well or 96-well tissue culture plates (Costar Corp.; Cambridge, Mass.) until three days post-confluence. Sebocyte growth medium consisted of Clonetics Keratinocyte Basal Medium (KBM) supplemented With 14 μg/ml bovine pituitary extract, 0.4 μ/ml hydrocortisone, 5 μ/ml insulin, 10ng/ml epidermal growth factor, 1.2×10^−10 M cholera toxin, 100 units/ml penicillin, and 100 μg/ml streptomycin. All cultures were incubated at 37° C. in the presence of 7.5% CO2. Medium was changed three times per week.
On the day of experimentation, the growth medium was removed and the sebocytes washed three times with sterile Dulbecco's Modified Eagle Medium (DMEM; phenol red free). Fresh DMEM was added to each sample (triplicates) with 1-5 microliter of test agent solubilized in ethanol. Controls consisted of addition of ethanol alone. Each plate was returned to the incubator for 20 hours followed by the addition of ^14C-acetate buffer (5 mM final concentration, 56 mCi/mmol specific activity). Sebocytes were returned to the incubator for four hours afterwhich each culture was rinsed three times with phosphate buffered saline to remove unbound label. Radioactive label remaining in the sebocytes was harvested and counted using a Beckman scintillation counter. Statistical significance (p value) was calculated using student's t-test. Phenol Red, a known sebum suppressive agent, was employed as a positive control.

[2] = test system: Neonatal human dermal fibroblasts; assay: Glycosaminoglycan synthesis by fibroblasts, Alcian Blue dot blot; details: Table 7, glycosaminoglycans
Protocol: Neonatal human dermal fibroblasts were seeded at a density of approximately 50,000/well in a 12-well plate in a medium containing DMEM (high glucose supplemented with 2 mM L-glutamine, 10% fetal bovine serum, antibiotic and antimycotic solutions). Cells were then grown to confluence for 2 days. At confluence, each well was rinsed in serum-free DMEM and the cells dosed with test compounds (in triplicate) in 750 μL of serum-free DMEM. After 24 hours, this medium was aspirated and the treatment step repeated. After a second 24-hour period, this medium, containing the soluble GAGs, was collected and frozen until analysis.
A positively-charged Zeta Probe membrane was soaked in sterile water and placed into the Dot-Blot Apparatus (both Bio-Rad Labs, Hercules, Calif.). 100 μL of water was applied to each well and pulled through using a vacuum. After thawing, 100 μL of test solution samples or standards (Hyaluronic acid or Chondroitin Sulfate from bovine trachea, Sigma, St. Louis, Mo.) was applied to the membrane and allowed to gravity filter (about 1.5-2 hours). GAGs were now bound to membrane. The membrane was blocked in 3% w/v fatty acid free bovine serum albumin (Sigma) in water for one hour. A dye solution of 0.5% w/v Alcian Blue dye (ICN Biochemicals, Cleveland, Ohio.) in 3% acetic acid, pH approximately 2.3, was made. The membrane was washed twice in distilled water and then stained in the dye solution on a rotary shaker for 15 minutes. The dye was poured off and the membrane destained twice for 15 minutes each time in 3% acetic acid. The membrane was rinsed in water and left to dry overnight. The blot was scanned on Bio-Rad GS-700 Image Analysis Densitometer and volume (OD*mm^2) of color/slot determined using molecular analyst software. Fold increase over control was calculated as a ratio of densitometer reading for cells treated with a test compound over control.

[3] = test system: Neonatal human dermal fibroblasts; assay: Procollagen I production by fibroblasts, slot blot
Protocol: Neonatal human dermal fibroblasts were purchased from Clonetics Corp., San Diego, Calif. All materials for cell culture were purchased from Life Technologies, NY and used in passages 5-10. Cells were seeded at a density of approximately 7,500/well in the inner 48 wells of a 96-well plate in a medium containing DMEM (Dulbecco's Modified Eagle's Medium), high-glucose supplemented with 2 mM L-glutamine, 10% fetal bovine serum, and antibiotic and antimycotic solutions). Cells were then grown to confluence for 2 days. At confluence, the medium was removed and cells were washed with serum-free DMEM, and each well dosed with 200 μl of a solution of a test compound in serum-free DMEM. Each dosing was replicated in the total of six wells. […] After 24 hours, the test compound solution or the control solution was removed and cells redosed with 100 μl of a solution of a test compound in serum-free DMEM. After 24 hours, the test compound solution or the control solution was removed and stored over the weekend at 4° C. with protease inhibitor (Aprotinin from Sigma) in a ratio of aprotinin to water of 1:200. The test compound solution was then diluted in DMEM (approximately 20 μl sample in 200 μl DMEM).
Nitrocellulose membrane and 3 sheets of filter paper were soaked in TRIS buffered saline (TBS, pH 7.3.). BioRad slot blot apparatus (BioRad Labs, CA) was set up with filter paper on bottom, membrane on top, tightened. […] TBS was added per well. Vacuum was used to suck wells through membrane. The diluted test compound solution or control was vortexed, then 100 μl was loaded per well and gravity dried. Procollagen from the test solution was bound to the membrane at this point in the procedure. Membrane was removed from the apparatus, excess cut off, and bottom right corner notched for orientation. The membrane was placed in blocking solution (5% milk powder in Dulbecco's phosphate buffered saline) overnight at 4° C., with shaking. The membrane was then incubated for 1.5 hrs at room temperature with 1.5 mL Rat Anti-Human Procollagen Amino-Terminal Ab (Chemicon MAB1912) in TBS with 0.1% BSA (ratio of antibody to buffer/BSA was 1:100) in a sealed bag with shaking. The membrane was then removed; washed 3 times for 5 minutes in TBS/0.1% Tween. The membrane was then incubated for 1 hour at room temperature in 2 mL of Biotinylated Anti-Rat Peroxidase-Conjugated Ab (Vector Labs) in TBS with 0.1% BSA (ratio of antibody to buffer/BSA was 1:1000) in a sealed bag with shaking.
The membrane was washed 3 times for 5 minutes in TBS/0.1%Tween. 3 mL PBS was incubated with 30 μl each of solutions A and B from Vectastain Kit for 30 minutes. The membrane was placed in the resulting solution for 30 minutes in a sealed bag with shaking. The membrane was then removed and washed twice for 5 minutes in TBS/0.1% Tween. The membrane was then stained using the following solution:
12.5 mg 3-amino 9-ethyl carbazole (Sigma)
3.125 (approximately) mL DMF (N,N-dimethylformamide, from Sigma)
The membrane was stained until color developed and the reaction stopped with 2 washes for 10 minutes in tap water. A transparency of the blot was prepared using a color copier. Blot was scanned on Bio-Rad GS-700 Image Analysis densitometer and volume (OD*mm^2) of color/slot determined using molecular analysis software. Fold increase was calculated as a ratio of densitometer reading for cells treated with a test compound over control.

[4] = Homo sapiens, 20 h, Table 3A, 20 hour incubation, 96 well plate, read-out: % Reduction
[5] = Homo sapiens, 0.5 h, Table 4, 30 minute incubation, 48 well plate, read-out: % Reduction
[6] = Table 6B, 0.0046% test compound
[7] = positive control, concentration not given
[8] = Table 6B, positive control, concentration not given

Question: CC(C)CCCCCCCCCCOC(=O)c1ccccc1 [Isotridecyl Benzoate] was tested. Which inhibition at 3.9e-05 % ([1]; Homo sapiens, 20 h, Table 5, 0.000039% test agent, 20 hour incubation, 48 well plate, read-out: % Reduction) did it give?
Answer: 36.3%

Question: And the inhibition at 0.00039 % ([1]; Homo sapiens, 20 h, Table 5, 0.00039% test agent, 20 hour incubation, 48 well plate, read-out: % Reduction)?
Answer: 52.2%

Question: And the inhibition at 0.0039 % ([1]; Homo sapiens, 20 h, Table 5, 0.0039% test agent, 20 hour incubation, 48 well plate, read-out: % Reduction)?
Answer: 41.8%

Question: What about the “Average OD Reading” value ([2]; 0.003% test compound) of the same compound?
Answer: 0.22

Question: What about the “Fold increase over control” value ([2]; 0.003% test compound) of the same compound?
Answer: 0.8 fold

Question: What about the “Average OD Reading” value ([2]; 0.03% test compound) of the same compound?
Answer: 0.38

Question: What about the “Fold increase over control” value ([2]; 0.03% test compound) of the same compound?
Answer: 1.5 fold

Question: And the “Average OD Reading” value ([3]; Table 6B, 0.003% test compound)?
Answer: 2.534

Question: And the “Fold increase over control” value ([3]; Table 6B, 0.003% test compound)?
Answer: 1.3 fold

Question: What about the “Average OD Reading” value ([3]; Table 6B, 0.030% test compound) of the same compound?
Answer: 2.669

Question: And the “Fold increase over control” value ([3]; Table 6B, 0.030% test compound)?
Answer: 1.4 fold

Question: For O=S1(=O)OC(c2ccc(O)cc2)(c2ccc(O)cc2)c2ccccc21 [Phenol Red], which inhibition at 0.001 % ([1]; Homo sapiens, 20 h, Table 1, 20 hour incubation, 48 well plate, read-out: % Reduction) is on record?
Answer: 19.6%

Question: And the inhibition at 0.001 % [1, 4]?
Answer: 14%

Question: And the inhibition at 0.01 % [1, 4]?
Answer: 71.2%

Question: With CC(C)CCCCCCCCCCOC(=O)c1ccccc1O [Isotridecyl salicylate] as the compound, how does the inhibition at 0.005 % ([1]; Homo sapiens, 0.5 h, Table 4, 0.005% test agent, 30 minute incubation, 48 well plate, read-out: % Reduction) read?
Answer: 24.6%

Question: What about the inhibition at 0.01 % [1, 5] of the same compound?
Answer: 48.9%

Question: What about the “sebum suppression, result in words” value [1] of the same compound?
Answer: effective in suppressing sebum

Question: What does the source list for CCCC(=O)OCCCCCCCCCCC(C)C [Isotridecyl Butyrate]?
Answer: inhibition at 0.00027 % ([1]; Homo sapiens, 20 h, Table 3C, 0.00027% test agent, 20 hour incubation, 48 well plate, read-out: % Reduction): 4.1%; inhibition at 0.0027 % ([1]; Homo sapiens, 20 h, Table 3C, 0.0027% test agent, 20 hour incubation, 48 well plate, read-out: % Reduction): 17.2%; sebum suppression, result in words [1]: not effective sebum suppressive agents

Question: Which “sebum suppression, result in words” value [1] does the source give for CCCCCCCCCC(=O)OCCCCCCCCCCC(C)C [Isotridecyl Decanoate] here?
Answer: not effective sebum suppressive agents

Question: CCCCC/C=C\C/C=C\CCCCCCCC(=O)OCCCCCCCCCCC(C)C [Isotridecyl Linoleate] was tested. Which inhibition at 4.6e-05 % ([1]; Homo sapiens, 20 h, Table 5, 0.000046% test agent, 20 hour incubation, 48 well plate, read-out: % Reduction) did it give?
Answer: 57.3%

Question: And the inhibition at 0.00046 % ([1]; Homo sapiens, 20 h, Table 5, 0.00046% test agent, 20 hour incubation, 48 well plate, read-out: % Reduction)?
Answer: 50.9%

Question: And the inhibition at 0.0046 % ([1]; Homo sapiens, 20 h, Table 5, 0.0046% test agent, 20 hour incubation, 48 well plate, read-out: % Reduction)?
Answer: 44.9%

Question: And the “Average OD Reading” value ([2]; 0.0046% test compound)?
Answer: 0.40

Question: What about the “Fold increase over control” value ([2]; 0.0046% test compound) of the same compound?
Answer: 1.5 fold

Question: And the “Average OD Reading” value ([2]; 0.046% test compound)?
Answer: 0.29

Question: What about the “Fold increase over control” value ([2]; 0.046% test compound) of the same compound?
Answer: 1.1 fold

Question: What about the “Average OD Reading” value [3, 6] of the same compound?
Answer: 2.346

Question: And the “Fold increase over control” value [3, 6]?
Answer: 1.2 fold

Question: What about the “Average OD Reading” value ([3]; Table 6B, 0.046% test compound) of the same compound?
Answer: 2.4585

Question: And the “Fold increase over control” value ([3]; Table 6B, 0.046% test compound)?
Answer: 1.3 fold

Question: CCCCCCCCCCCCCOC(=O)c1ccccc1O [Straight Chain TDS, tridecyl salicylate] was tested. Which inhibition at 0.01 % [1, 5] did it give?
Answer: 1.3%

Question: TGF-b was tested. Which “Average OD Reading” value [2, 7] did it give?
Answer: 0.86

Question: What about the “Fold increase over control” value [2, 7] of the same compound?
Answer: 3.3 fold

Question: And the “Average OD Reading” value ([3]; Table 6A, test compound 0.01%, densitometer volume (OD*mm^2))?
Answer: 6.787

Question: What about the “Fold increase over control” value ([3]; Table 6A, test compound 0.01%, ratio of densitometer reading over control) of the same compound?
Answer: 1.9 fold

Question: What about the “Average OD Reading” value [3, 8] of the same compound?
Answer: 4.099

Question: And the “Fold increase over control” value [3, 8]?
Answer: 2.1 fold

Question: For CCCCCCCCC(=O)OCCCCCCCCCCC(C)C [Isotridecyl Nonanoate], which inhibition at 0.001 % ([1]; Homo sapiens, 20 h, Table 3B, 20 hour incubation, 48 well plate, read-out: % Reduction) is on record?
Answer: 0.7%

Question: And the inhibition at 0.1 % ([1]; Homo sapiens, 20 h, Table 3B, 0.1% test agent, 20 hour incubation, 48 well plate, read-out: % Reduction)?
Answer: 0.8%

Question: And the “sebum suppression, result in words” value [1]?
Answer: not effective sebum suppressive agents

Question: With CCCCCCCCCCCCCC(=O)OC(C)C [Isopropyl Myristate, Isopropyl myristate] as the compound, how does the inhibition at 0.001 % [1, 4] read?
Answer: -6.3%

Question: And the inhibition at 0.01 % [1, 4]?
Answer: 4%

Question: And the “sebum suppression, result in words” value [1]?
Answer: not an effective sebum suppressor
